# Measurements published in patent US10294243B2, “Bicyclic compounds as pesticides” (BAYER CROPSCIENCE AKTIENGESELLSCHAFT, priority 2014, dated 2019).
# Where two headings read alike, the source gives them in different places.
# What was measured:
# Myzus persicae [1] = test: Myzus persicae - spray test (bell pepper plants); assay type: in vivo; details: application rate 4 ppm, after 6 days
# Protocol: Myzus persicae—Spray Test Solvent: 7 parts by weight of dimethylformamide Emulsifier: alkylaryl polyglycol ether […] […] If the addition of ammonium salts or/and penetrants is required, these are each added in a concentration of 1000 ppm to the preparation solution. Bell pepper plants (Capsicum annuum) severely infested with the green peach aphid (Myzus persicae) are treated by spraying with the active compound preparation in the desired concentration.
# [2] = log P by HPLC on reversed-phase C18 columns (OECD Guideline 117); method [a] acidic pH 2.7, method [b] neutral pH 7.8; assay type: physicochemical; details: for chromatographic logP: reversed-phase C18 HPLC column
# Myzus persicae [3] = test: Myzus persicae - spray test (Chinese cabbage leaf discs); assay type: in vivo; details: application rate 500 g/ha, after 6 days; for pest or weed control at 500 g/ha: Myzus persicae, foliar, 144 h, read-out: efficacy (aphids killed)
# Protocol: Myzus persicae—Spray Test
# Solvent: 78 parts by weight of acetone • • 1.5 parts by weight of dimethylformamide
# (§1) Emulsifier: alkylaryl polyglycol ether
# (§2) To produce further test concentrations, the preparation is diluted with emulsifier-containing water.
# After 6 days, the efficacy in % is determined 100% means that all the aphids have been killed; 0% means that none of the aphids have been killed.
# Phaedon cochleariae = Phaedon cochleariae - spray test; assay type: in vivo; details: application rate 500 g/ha, Chinese cabbage leaf discs, after 7 days
# Text: Phaedon cochleariae—Spray Test
# as §1
# Tetranychus urticae = Tetranychus urticae - spray test, OP-resistant; assay type: in vivo; details: application rate 500 g/ha, bean leaf discs, after 6 days
# Protocol: Tetranychus urticae—Spray Test, OP-Resistant
# as §1
# After 6 days, the efficacy in % is determined. 100% means that all the spider mites have been killed; 0% means that none of the spider mites have been killed.
# Boophilus microplus = Boophilus microplus - injection test; assay type: in vivo; details: application rate 20 μg/animal, injection into engorged adult female cattle ticks, assessed after 7 days
# Protocol: Boophilus microplus—Injection Test
# Solvent: dimethyl sulphoxide
# To produce a suitable preparation of active compound, 10 mg of active compound are mixed with 0.5 ml of solvent and the concentrate is diluted with solvent to the desired concentration.
# 1 μl of the active compound solution is injected into the abdomen of 5 engorged adult female cattle ticks (Boophilus microplus). The animals are transferred into dishes and kept in a climate-controlled room.
# Efficacy is assessed after 7 days by laying of fertile eggs. Eggs which are not visibly fertile are stored in a climate-controlled cabinet until the larvae hatch after about 42 days. An efficacy of 100% means that none of the ticks has laid any fertile eggs; 0% means that all the eggs are fertile.
# Spodoptera frugiperda = details: application rate 500 g/ha, maize leaf discs, after 7 days
# Protocol: Spodoptera frugiperda—Spray Test
# Solvent: 78.0 parts by weight of acetone • • 1.5 parts by weight of dimethylformamide
# as §1, §2
# After 7 days, the efficacy in % is determined 100% means that all the caterpillars have been killed; 0% means that no caterpillars have been killed.
# [4] = HPLC reversed-phase C18, method [a] acidic pH 2.7, read-out: logP[a]
# [5] = HPLC reversed-phase C18, method [b] neutral pH 7.8, read-out: logP[b]
# [6] = HPLC reversed-phase C18, method [a] acidic pH 2.7
# [7] = HPLC reversed-phase C18, method [b] neutral pH 7.8
"chromatographic logP [2, 4]","chromatographic logP [2, 5]",SMILES,pest or weed control at 500 g/ha (Myzus persicae [3]) [%],efficacy (aphids killed) (Myzus persicae [3]) [%],"logP[a] [2, 6]","logP[b] [2, 7]",other results
1.73,1.76,"COc1cccc(-n2cnc3nc(-c4cccnc4)sc3c2=O)c1 [Compound 10, 6-(3-Methoxyphenyl)-2-(pyridin-3-yl)[1,3]thiazolo[4,5-d]pyrimidin-7(6H)-one]",–,–,–,–,efficacy (kill of aphids) (Myzus persicae [1]): 96%
2.71,2.69,"O=c1c2sc(-c3cccnc3)nc2ncn1-c1ccc(SC(F)(F)F)cc1 [Compound 62, 2-(Pyridin-3-yl)-6-{4-[(trifluoromethyl)sulphanyl]phenyl}[1,3]thiazolo[4,5-d]pyrimidin-7(6H)-one]",90,–,–,–,efficacy (beetle larvae killed) (Phaedon cochleariae): 100%
2.25,2.05,"Cc1cc(F)c(-n2c(C)nc3nc(-c4cccnc4)sc3c2=O)cc1[S+]([O-])CC(F)(F)F (stereo not shown) [Compound 57, 6-{2-Fluoro-4-methyl-5-[(2,2,2-trifluoroethyl)sulphinyl]phenyl}-5-methyl-2-(pyridin-3-yl)[1,3]thiazolo[4,5-d]pyrimidin-7(6H)-one]",100,–,–,–,efficacy (spider mites killed) (Tetranychus urticae): 90%; efficacy (laying of fertile eggs) (Boophilus microplus): 100%
2.06,2.01,"Cc1cc(C)c([S+]([O-])CC(F)(F)F)cc1-n1cnc2nc(-c3cccnc3)sc2c1=O (stereo not shown) [Compound 50, 6-{2,4-Dimethyl-5-[(2,2,2-trifluoroethyl)sulphinyl]phenyl}-2-(pyridin-3-yl)[1,3]thiazolo[4,5-d]pyrimidin-7(6H)-one]",100,–,–,–,–
–,–,CC(C)Sc1cccc(-n2cnc3nc(-c4cccnc4)sc3c2=O)c1 [Compound 24],–,90,2.76,2.70,–
–,–,O=c1c2sc(-c3cccnc3)nc2ncn1-c1ccc(Cl)cc1 [Compound 43],–,100,2.05,2.06,–
–,–,Cn1ccc(Cn2cnc3nc(-c4cccnc4)sc3c2=O)n1 [Compound 37],–,90,0.97,1.08,efficacy (beetle larvae killed) (Phaedon cochleariae): 100%; efficacy (caterpillars killed) (Spodoptera frugiperda): 100%
–,–,CC(C)C[S+]([O-])c1cccc(-n2cnc3nc(-c4cccnc4)sc3c2=O)c1 (stereo not shown) [Compound 27],–,90,1.73,1.68,–
–,–,CC[S+]([O-])c1cccc(-n2cnc3nc(-c4cccnc4)sc3c2=O)c1 (stereo not shown) [Compound 20],–,100,1.24,1.26,–
3.36,3.25,"Cc1cc(F)c(-n2cnc3nc(-c4cncc(F)c4)sc3c2=O)cc1SCC(F)(F)F [Compound 73, 6-{2-Fluoro-4-methyl-5-[(2,2,2-trifluoroethyl)sulphanyl]phenyl}-2-(5-fluoropyridin-3-yl)[1,3]thiazolo[4,5-d]pyrimidin-7(6H)-one]",90,–,–,–,–
1.84,1.82,"Cc1cc(C)c([S+]([O-])CC(F)(F)F)cc1-n1cnc2nc(-c3cncnc3)sc2c1=O (stereo not shown) [Compound 77, 6-{2,4-Dimethyl-5-[(2,2,2-trifluoroethyl)sulphinyl]phenyl}-2-(pyrimidin-5-yl)[1,3]thiazolo[4,5-d]pyrimidin-7(6H)-one]",100,–,–,–,–
–,–,CSc1cc(-n2cnc3nc(-c4cncc(F)c4)sc3c2=O)ccc1C [Compound 70],–,100,2.82,2.75,–
–,–,O=c1c2sc(-c3cccnc3)nc2ncn1-c1ccccc1F [Compound 40],–,100,1.70,1.69,–
–,–,Cc1cc(F)c(-n2cnc3nc(-c4cncnc4)sc3c2=O)cc1SCC(F)(F)F [Compound 78],–,90,2.73,2.65,–
1.9,1.91,"Cc1cc(F)c(-n2cnc3nc(-c4cccnc4)sc3c2=O)cc1SCC(=O)N(C)C [Compound 54, 2-({4-Fluoro-2-methyl-5-[7-oxo-2-(pyridin-3-yl)[1,3]thiazolo[4,5-d]pyrimidin-6(7H)-yl]phenyl}sulphanyl)-N,N-dimethylacetamide]",100,–,–,–,–
–,–,Cc1ccc(-n2cnc3nc(-c4cccnc4)sc3c2=O)cc1 [Compound 11],–,–,1.92,1.96,efficacy (spider mites killed) (Tetranychus urticae): 90%; efficacy (beetle larvae killed) (Phaedon cochleariae): 100%; efficacy (caterpillars killed) (Spodoptera frugiperda): 100%

"chromatographic logP [2, 4]","chromatographic logP [2, 5]",SMILES,pest or weed control at 500 g/ha (Myzus persicae [3]) [%],efficacy (aphids killed) (Myzus persicae [3]) [%],"logP[a] [2, 6]","logP[b] [2, 7]",other results
1.38,1.38,"Cc1cc(F)c(-n2cnc3nc(-c4cccnc4)sc3c2=O)cc1[S+]([O-])CC(=O)N(C)C (stereo not shown) [Compound 55, 2-({4-Fluoro-2-methyl-5-[7-oxo-2-(pyridin-3-yl)[1,3]thiazolo[4,5-d]pyrimidin-6(7H)-yl]phenyl}sulphinyl)-N,N-dimethylacetamide]",90,–,–,–,–
–,–,CC[S+]([O-])c1ccccc1-n1cnc2nc(-c3cccnc3)sc2c1=O (stereo not shown) [Compound 67],–,90,1.28,1.29,–
1.54,–,"O=c1c2sc(-c3cccnc3)nc2ncn1CC(F)(F)F [Compound 5, 2-(Pyridin-3-yl)-6-(2,2,2-trifluoroethyl)[1,3]thiazolo[4,5-d]pyrimidin-7(6H)-one]",100,–,–,–,–
2.01,1.98,"Cc1cc(F)c(-n2cnc3nc(-c4cccnc4)sc3c2=O)cc1[S+]([O-])CC(F)(F)F (stereo not shown) [Compound 22, 6-{2-Fluoro-4-methyl-5-[(2,2,2-trifluoroethyl)sulphinyl]phenyl}-2-(pyridin-3-yl)[1,3]thiazolo[4,5-d]pyrimidin-7(6H)-one]",90,–,–,–,–
–,–,CC[S+]([O-])c1ccc(-n2cnc3nc(-c4cccnc4)sc3c2=O)cc1 (stereo not shown) [Compound 61],–,100,1.10,1.22,–
3.45,3.32,"Cc1cc(F)c(-n2nnc3nc(-c4cccnc4)sc3c2=O)cc1SCC(F)(F)F [Compound 58, 3-{2-Fluoro-4-methyl-5-[(2,2,2-trifluoroethyl)sulphanyl]phenyl}-6-(pyridin-3-yl)[1,3]thiazolo[4,5-d][1,2,3]triazin-4(3H)-one]",90,–,–,–,–
–,–,O=c1c2sc(-c3cccnc3)nc2ncn1-c1cc(SCC2CC2)ccc1F [Compound 44],–,–,2.91,3.00,efficacy (kill of aphids) (Myzus persicae [1]): 100%
–,–,O=c1c2sc(-c3cccnc3)nc2ncn1Cc1ccncc1 [Compound 36],–,90,0.55,–,–
–,–,CSc1cc(-n2cnc3nc(-c4cccnc4)sc3c2=O)ccc1C [Compound 15],–,100,2.42,2.35,–
–,–,CCSc1ccccc1-n1cnc2nc(-c3cccnc3)sc2c1=O [Compound 66],–,100,2.20,2.21,–
–,–,O=c1c2sc(-c3cccnc3)nc2ncn1-c1cc(SCC(F)(F)F)c(Cl)cc1Cl [Compound 51],–,100,3.25,3.17,–
1.09,–,"O=c1c2sc(-c3cccnc3)nc2ncn1Cc1ccccn1 [Compound 34, 2-(Pyridin-3-yl)-6-(pyridin-2-ylmethyl)[1,3]thiazolo[4,5-d]pyrimidin-7(6H)-one]",100,–,–,–,–
–,–,O=c1c2sc(-c3cccnc3)nc2ncn1-c1cc([S+]([O-])CC2CC2)ccc1F (stereo not shown) [Compound 45],–,100,1.63,1.66,–
2.34,2.26,"Cc1cc(F)c(-n2cnc3nc(-c4cncc(F)c4)sc3c2=O)cc1[S+]([O-])CC(F)(F)F (stereo not shown) [Compound 74, 6-{2-Fluoro-4-methyl-5-[(2,2,2-trifluoroethyl)sulphinyl]phenyl}-2-(5-fluoropyridin-3-yl)[1,3]thiazolo[4,5-d]pyrimidin-7(6H)-one]",90,–,–,–,–
–,–,COc1ccc(-n2cnc3nc(-c4cccnc4)sc3c2=O)cc1 [Compound 12],–,90,1.73,1.76,–
